Test results taken from US11446308B2, “Methods and compositions for the prevention and treatment of hearing loss” (St. Jude Children's Research Hospital, priority 2015, dated 2022).
Read-outs that look alike come from different tables or passages of the source. Residues, ends and D or L forms follow the SMILES beside them. *: point of attachment. Cbz = O=C(OCc1ccccc1)*; CH2F = FC*

Experiments:
HEI-OC1 cells [1] = experiment: Caspase-3/7 Glo assay, cisplatin-induced apoptosis in HEI-OC1 cell line
[2] = test system: outer hair cells (OHCs) in mouse cochlear explants; experiment: Protection against cisplatin-induced hair cell loss in neonatal (P3) mouse cochlear explants; assay type: cell-based; settings: for OHC survival: 24 hr cisplatin co-treatment; for IC50: read-out: Mouse Explant IC50; for OHCs protected against cisplatin (For x%): level of protection to which the stated explant IC50 refers; for Explant Cisplatin LD50: LD50, unnumbered table
HEI-OC1 cells [3] = test system: HEI-OC1 cells
[4] = test system: hair cells in zebrafish lateral line neuromasts; experiment: Protection against cisplatin-induced hair cell loss in zebrafish lateral lines in vivo; settings: 5-dpf larvae, 5 μM cisplatin
[5] = test system: hair cells in mouse cochlear explants
[6] = test system: hair cells in zebrafish lateral line neuromasts; settings: for Zebrafish LD50: 5-dpf larvae
Method: The experiments were performed with 5-dpf larval zebrafish of the *AB wild-type strain. Dose-response studies were performed to find the cisplatin concentration at which most of the hair cells in each neuromast were killed in the absence of a protective compound and at the same DMSO concentration (<0.2%).
Experiments were performed in 24-well plates with 5 fish per well in volumes of 1-2 mL. Fish were incubated with 5 μM and stained with 0.005% DASPEI vital dye for 15 minutes. After two washes with egg water, fish were visualized in an epiflourescence microscope. […] Results were plotted as percent survival of hair cells in the cisplatin-treated fish relative to the untreated fish (FIG. 4A-E).

[7] = test system: mouse medulloblastoma neurosphere lines and human neuroblastoma cell lines; experiment: Interference with cisplatin's killing function in tumor cell lines (Cell Titer Glo); assay type: cell-based; settings: 48 hours, cisplatin 23 μM, compound 3×IC50
Method: FIG. 11 addresses interference with cisplatin's killing function in tumors. Four neurosphere lines derived from mouse medulloblastoma (MB) and two human neuroblastoma (NB) cell lines were tested. HEI-OC1 cell line was tested as controls.
Table 1 lists the top 18 compound hits in the screen in terms of high potency and low toxicity. The top ten compounds were further evaluated by a viability assay (Cell Titer Glo, Promega) in medulloblastoma neurosphere cell lines and neuroblastoma cell lines to test whether they inhibit the ability of cisplatin to kill the tumor cells. The majority had no antagonistic effect on cisplatin's antitumor activity (data not shown) and are therefore safe to use systemically together with cisplatin during chemotherapy to protect against cisplatin-induced hearing loss.

mouse cochlear explants = settings: cited from earlier work
[8] = cited from earlier work
CDK1, 2, 4, 6 and 9 = settings: range over the kinases; cited from earlier work
[9] = Mus musculus, HEI-OC1, 22 h, read-out: HEI-OC1 IC50
[10] = read-out: HEI-OC1 IC50, Caspase-3/7 Glo, 50 μM cisplatin, 22 hrs
[11] = P3 cochlear explants, 50 μM cisplatin, 24 hrs
[12] = Cell Titer Glo, compound without cisplatin, 40 μM to 40 nM, 22 hrs
[13] = Mus musculus, 24 h, P3 cochlear explants, 50 μM cisplatin, 24 hrs
[14] = Mus musculus, HEI-OC1, read-out: HEI-OC1 IC50

Compound: Cc1oncc1C(=O)Nc1ccc(C(F)(F)F)cc1 [Compound 1, Leflunomide]
- IC50 (HEI-OC1 cells [1]; [9]): 3000 nM
- OHC survival [2]: 100%
- HEI-OC1 LD50 (HEI-OC1 cells [3]; mouse, 22 h): >40 µM
- Zebrafish IC50 [4]: No
- Mouse Explant LD50 ([5]; mouse, 24 h): >50 µM
- Zebrafish LD50 [6]: >5.0 µM

Compound: O=C([O-])c1cc(/N=N/c2ccc(O)c(C(=O)[O-])c2)ccc1O.[Na+].[Na+] [Compound 2, Olsalazine sodium]
- IC50 (HEI-OC1 cells [1]; [10]): 6200 nM
- IC50 [2, 11]: ~30000 nM
- OHCs protected against cisplatin (For x%) [2]: (For 50%)
- HEI-OC1 LD50 (HEI-OC1 cells [3]; [12]): >40 µM
- Zebrafish IC50 [4]: No
- Mouse Explant LD50 ([5]; P3 cochlear explants): >30 µM
- Zebrafish LD50 [6]: >30 µM

Compound: CCOc1cc2ncc(C#N)c(Nc3ccc(F)c(Cl)c3)c2cc1NC(=O)/C=C/CN(C)C [Compound 3, Pelitinib]
- IC50 (HEI-OC1 cells [1]; [9]): 600 nM
- IC50 [2, 13]: ~6000 nM
- OHCs protected against cisplatin (For x%) [2]: (For 50%)
- HEI-OC1 LD50 (HEI-OC1 cells [3]; mouse, 22 h): >40 µM
- Zebrafish IC50 [4]: No
- Mouse Explant LD50 ([5]; mouse, 24 h): <13 µM
- Zebrafish LD50 [6]: <27 µM

Compound: CCCCCC[C@H]1C(=O)OC(C)C(NC(=O)c2cccc(NC=O)c2O)C(=O)O[C@@H](C)C1OC(=O)CC(C)C (stereo partly drawn) [Compound 5, Antimycin A]
- IC50 (HEI-OC1 cells [1]; [9]): 40 nM
- IC50 [2, 13]: ~1800 nM
- OHCs protected against cisplatin (For x%) [2]: (For 31%)
- HEI-OC1 LD50 (HEI-OC1 cells [3]; [12]): >10 µM
- Zebrafish IC50 [4]: No
- Mouse Explant LD50 ([5]; P3 cochlear explants): <4 µM
- Zebrafish LD50 [6]: <0.6 µM

Compound: O=c1cc(CN2CCOCC2)occ1OCCCCCSc1ccnc2cc(C(F)(F)F)ccc12 [Compound 7, EHT1864]
- IC50 (HEI-OC1 cells [1]; [9]): 2000 nM
- IC50 [2, 13]: ~10000 nM
- OHCs protected against cisplatin (For x%) [2]: (For 58%)
- HEI-OC1 LD50 (HEI-OC1 cells [3]; mouse, 22 h): >20 µM
- interference with cisplatin anti-tumor activity [7]: no interference in all tumor cell lines (except one for Compound 7)
- Zebrafish IC50 [4]: No
- Mouse Explant LD50 ([5]; mouse, 24 h): <20 µM
- Zebrafish LD50 [6]: <1.0 µM

Compound: CC[C@H](CO)Nc1nc(NCc2ccccc2O)c2ncn(C(C)C)c2n1 [Compound 9, Olomoucine II]
- IC50 (HEI-OC1 cells [1]; [9]): 800 nM
- IC50 (HEI-OC1 cells [1]; [14]): 800 nM
- protection against cisplatin-induced hair cell loss in cochlear explants ([2]; 50 μM cisplatin, 24 hrs): protect against cisplatin-induced hair cell loss
- OHC survival [2]: 100%
- Explant Cisplatin LD50 [2]: 3,000 nM
- HEI-OC1 LD50 (HEI-OC1 cells [3]; mouse, 22 h): >40 µM
- Zebrafish IC50 [4]: No
- Explant Cisplatin LD50 ([5]; mouse, 24 h): > 33000 nM
- Mouse Explant LD50 ([5]; mouse, 24 h): >33 µM
- Zebrafish LD50 [6]: >50 µM

Compound: Sc1nc2ccccc2s1 [Compound 10, 2-Mercapto-benzothiazole]
- IC50 (HEI-OC1 cells [1]; [9]): 7000 nM
- IC50 [2, 13]: > 49000 nM
- HEI-OC1 LD50 (HEI-OC1 cells [3]; [12]): >10 µM

Compound: O=C1C=C2C(=CCOC2O)O1 (stereo not drawn) [Compound 11, Patulin]
- IC50 (HEI-OC1 cells [1]; [9]): 700 nM
- IC50 ([2]; Mus musculus, 24 h): 3000 to 9000 nM

Compound: OC[C@H]1OC(c2nc3ccccc3[nH]2)[C@H](O)[C@@H]1O (stereo partly drawn) [Compound 13, D-Ribofuranosyl- benzimidazole]
- IC50 (HEI-OC1 cells [1]; [9]): 4000 nM
- IC50 [2, 13]: ~8000 nM
- OHCs protected against cisplatin (For x%) [2]: (For 76%)
- HEI-OC1 LD50 (HEI-OC1 cells [3]; mouse, 22 h): >40 µM
- Zebrafish IC50 [4]: No
- Zebrafish LD50 [6]: >75 µM

Compound: CN(C)CCOc1ccc(-c2cc(-c3ccc4c(c3)CC/C4=N\O)c(-c3ccncc3)o2)cc1 [Compound 14]
- IC50 (HEI-OC1 cells [1]; [9]): 1300 nM
- HEI-OC1 LD50 (HEI-OC1 cells [3]; mouse, 22 h): >10 µM

Compound: CN[C@H](C#Cc1c(F)ccc2c1/C(=C/c1[nH]ccc1OC)C(=O)N2)CO [Compound 15]
- IC50 (HEI-OC1 cells [1]; [9]): 100 nM
- HEI-OC1 LD50 (HEI-OC1 cells [3]; mouse, 22 h): >10 µM

Compound: O=C(Nc1n[nH]c2nc(-c3ccc(O)cc3)c(Br)cc12)C1CC1 [Compound 16]
- IC50 (HEI-OC1 cells [1]; [9]): 800 nM
- HEI-OC1 LD50 (HEI-OC1 cells [3]; mouse, 22 h): >40 µM

Compound: COc1cccc(-c2c[nH]c3c(N/N=C/c4ccncc4)ncnc23)c1 [Compound 17]
- IC50 (HEI-OC1 cells [1]; [9]): 2100 nM
- HEI-OC1 LD50 (HEI-OC1 cells [3]; mouse, 22 h): >40 µM

Compound: CC(C)COC(=O)c1ccc2[nH]c(O)c(/C=N/c3ccc(S(N)(=O)=O)cc3)c2c1 [Compound 18]
- IC50 (HEI-OC1 cells [1]; [9]): 3400 nM
- HEI-OC1 LD50 (HEI-OC1 cells [3]; mouse, 22 h): >40 µM

Compound: O=c1c2ccccc2[se]n1-c1ccccc1 [Ebselen, 2-phenyl-1,2-benzisoselenazol-3-one, reference compound]
- potency in protection against cisplatin (HEI-OC1 cells [1]; dose response): low potency

Compound: Cc1ccc(C(=O)Cn2c3c(sc2=N)CCCC3)cc1 [Pifithrin-α, reference compound]
- concentration for full reduction of caspase-3/7 activity (HEI-OC1 cells [1]; 50 μM cisplatin): 34 µM
- IC50 (HEI-OC1 cells [1]; read-out: IC50, reduction of caspase-3/7 activity (caspase-3 cleavage), reference compound, 50 μM cisplatin): 17000 nM
- damage at protective doses (mouse cochlear explants; 20-100 μM): damage the hair cell stereocillia
- concentrations conferring protection from cisplatin-induced cell death (mouse cochlear explants; mouse cochlear explants): 20 to 100 µM

Compound: Cc1ncc(-c2ccnc(Nc3ccc(S(C)(=O)=O)cc3)n2)n1C(C)C [SJZuo-19, AZD5438]
- oral bioavailability, F [8]: 91%
- Explant Cisplatin LD50 [2]: ~25 nM
- Explant Cisplatin LD50 ([5]; mouse, 24 h): < 1000 nM

Compound: O=C(NC1CCNCC1)c1n[nH]cc1NC(=O)c1c(Cl)cccc1Cl [SJZuo-20, AT7519]
- oral bioavailability, F [8]: < 1%
- IC50 (HEI-OC1 cells [1]; [14]): 380 nM
- Explant Cisplatin LD50 [2]: ~25 nM
- Explant Cisplatin LD50 ([5]; mouse, 24 h): < 1000 nM

Compound: N.N.[Cl][Pt][Cl] [cisplatin, reference compound]
- death of outer hair cells (OHCs) ([5]; 50 μM, 24 hrs): ~40%
- hair cells killed ([6]; 5 μM, 20 hrs, no protective compound): 91%

Compound: COC(=O)C[C@H](NC(=O)[C@H](C)NC(=O)[C@@H](NC(=O)OCc1ccccc1)C(C)C)C(=O)CF [zVAD-fmk] (Cbz-Val-Ala-Asp(OMe)-CH2F)
- IC50 (mouse cochlear explants; read-out: IC50, inhibition of cisplatin-induced cell death in the mouse cochlea): 200 nM

Compound: Cyanocobalamin (vitamin B12) [Compound 6]
- IC50 (HEI-OC1 cells [1]; [10]): 4200 nM
- IC50 [2, 11]: ~21000 nM
- OHCs protected against cisplatin (For x%) [2]: (For 53%)
- HEI-OC1 LD50 (HEI-OC1 cells [3]; [12]): >40 µM
- Mouse Explant LD50 ([5]; P3 cochlear explants): >21 µM
